Assay results: ChEMBL document CHEMBL4507308 (2021)
Calls of active or inactive are those of the source. The rule behind the calls is not given here.

Key:
[1] = target: T1, 5-hydroxytryptamine receptor 2B (Homo sapiens, UniProt P41595); assay: GPCRScan assay: inhibition of 5-HT2B; parameters: radioligand conc. used [nm] 1.0 – 2.0, parental cells stable HEK
[2] = target: GABA-A receptor; anion channel; assay: GPCRScan assay: inhibition of GABAA/BZP; format: protein-complex assay, Rattus norvegicus; parameters: radioligand conc. used [nm] 0.6 – 4.0, parental cells brain tissue
Activin receptor type-1B [3] = target: T2, Activin receptor type-1B (Homo sapiens, UniProt P36896); assay: NanoBRET (SGC Frankfurt) (ACVR1B)
T2 sequence (P36896 whole entry): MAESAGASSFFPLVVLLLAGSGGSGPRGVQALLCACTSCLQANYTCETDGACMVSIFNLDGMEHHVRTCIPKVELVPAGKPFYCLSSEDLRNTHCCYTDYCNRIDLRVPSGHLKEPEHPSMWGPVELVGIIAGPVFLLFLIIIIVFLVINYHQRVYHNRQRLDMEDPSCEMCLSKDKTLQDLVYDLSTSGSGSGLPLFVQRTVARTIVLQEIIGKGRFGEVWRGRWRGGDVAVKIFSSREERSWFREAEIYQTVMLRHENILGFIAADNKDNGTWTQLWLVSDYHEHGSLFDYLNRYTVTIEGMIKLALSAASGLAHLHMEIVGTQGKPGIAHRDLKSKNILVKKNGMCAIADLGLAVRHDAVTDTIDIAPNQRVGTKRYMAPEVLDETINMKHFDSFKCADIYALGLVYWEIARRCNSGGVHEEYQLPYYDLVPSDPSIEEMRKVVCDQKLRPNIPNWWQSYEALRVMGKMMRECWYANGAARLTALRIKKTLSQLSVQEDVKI

TGF-beta receptor type-1 = TGF-beta receptor type-1 (Homo sapiens, UniProt P36897); assay: NanoBRET (SGC Frankfurt) (TGFBR1)
[4] = target: 5-hydroxytryptamine receptor 1A (Homo sapiens) (UniProt P08908); conditions: Compound concentration 10.0 uM
[5] = target: 5-hydroxytryptamine receptor 1B (Homo sapiens) (UniProt P28222); conditions: Compound concentration 10.0 uM
[6] = target: 5-hydroxytryptamine receptor 2A (Homo sapiens) (UniProt P28223); conditions: Compound concentration 10.0 uM
[7] = target: T1, 5-hydroxytryptamine receptor 2B; conditions: Compound concentration 10.0 uM
[8] = target: 5-hydroxytryptamine receptor 2C (Homo sapiens) (UniProt P28335); conditions: Compound concentration 10.0 uM
[9] = target: 5-hydroxytryptamine receptor 3A (Homo sapiens) (UniProt P46098); conditions: Compound concentration 10.0 uM
[10] = target: 5-hydroxytryptamine receptor 5A (Homo sapiens) (UniProt P47898); conditions: Compound concentration 10.0 uM
[11] = target: 5-hydroxytryptamine receptor 6 (Homo sapiens) (UniProt P50406); conditions: Compound concentration 10.0 uM
[12] = target: 5-hydroxytryptamine receptor 7 (Homo sapiens) (UniProt P34969); conditions: Compound concentration 10.0 uM
[13] = target: D(1A) dopamine receptor (Homo sapiens) (UniProt P21728); conditions: Compound concentration 10.0 uM
[14] = target: D(2) dopamine receptor (Homo sapiens) (UniProt P14416); conditions: Compound concentration 10.0 uM
[15] = target: D(4) dopamine receptor (Homo sapiens) (UniProt P21917); conditions: Compound concentration 10.0 uM
[16] = target: D(1B) dopamine receptor (Homo sapiens) (UniProt P21918); conditions: Compound concentration 10.0 uM
[17] = target: Sodium-dependent serotonin transporter (Homo sapiens) (UniProt P31645); conditions: Compound concentration 10.0 uM
[18] = target: T3, Sodium-dependent dopamine transporter (Homo sapiens, UniProt Q01959); conditions: Compound concentration 10.0 uM
[19] = target: Histamine H1 receptor (Homo sapiens) (UniProt P35367); conditions: Compound concentration 10.0 uM
[20] = target: Histamine H3 receptor (Homo sapiens) (UniProt Q9Y5N1); conditions: Compound concentration 10.0 uM
[21] = target: Alpha-1A adrenergic receptor (Homo sapiens) (UniProt P35348); conditions: Compound concentration 10.0 uM
[22] = target: Alpha-1B adrenergic receptor (Homo sapiens) (UniProt P35368); conditions: Compound concentration 10.0 uM
[23] = target: Alpha-2A adrenergic receptor (Homo sapiens) (UniProt P08913); conditions: Compound concentration 10.0 uM
[24] = target: Alpha-2B adrenergic receptor (Homo sapiens) (UniProt P18089); conditions: Compound concentration 10.0 uM
[25] = target: Alpha-2C adrenergic receptor (Homo sapiens) (UniProt P18825); conditions: Compound concentration 10.0 uM
[26] = target: Beta-1 adrenergic receptor (Homo sapiens) (UniProt P08588); conditions: Compound concentration 10.0 uM
[27] = target: Beta-2 adrenergic receptor (Homo sapiens) (UniProt P07550); conditions: Compound concentration 10.0 uM
[28] = target: Muscarinic acetylcholine receptor M1 (Homo sapiens) (UniProt P11229); conditions: Compound concentration 10.0 uM
[29] = target: Muscarinic acetylcholine receptor M2 (Homo sapiens) (UniProt P08172); conditions: Compound concentration 10.0 uM
[30] = target: Muscarinic acetylcholine receptor M3 (Homo sapiens) (UniProt P20309); conditions: Compound concentration 10.0 uM
[31] = target: Muscarinic acetylcholine receptor M4 (Homo sapiens) (UniProt P08173); conditions: Compound concentration 10.0 uM
[32] = target: Muscarinic acetylcholine receptor M5 (Homo sapiens) (UniProt P08912); conditions: Compound concentration 10.0 uM
[33] = target: Beta-3 adrenergic receptor (Homo sapiens) (UniProt P13945); conditions: Compound concentration 10.0 uM
[34] = target: T4, GABA-A receptor; anion channel (Rattus norvegicus) (UniProt O09028+P15431+P18506+P18508+P19969+P20236+P23574+P23576+P28471+P28473+P30191+P62813+P63079+P63138+Q91ZM7+Q9ES14); conditions: Compound concentration 10.0 uM
Rattus norvegicus = species on record: Rattus norvegicus; conditions: Compound concentration 10.0 uM
[35] = target: Alpha-1D adrenergic receptor (Homo sapiens) (UniProt P25100); conditions: Compound concentration 10.0 uM
[36] = target: Sigma intracellular receptor 2 (Homo sapiens) (UniProt Q5BJF2); conditions: Compound concentration 10.0 uM
[37] = target: T3, Sodium-dependent dopamine transporter; assay: GPCRScan assay: inhibition of DAT; parameters: radioligand conc. used [nm] 3.6 – 16.0, parental cells stable HEK
Activin receptor type-1B [38] = target: T2, Activin receptor type-1B; assay: Lathascreen (Takeda) (ACVR1B)
Activin receptor type-1B [39] = target: T2, Activin receptor type-1B; assay: Reporter gene assay (ACVR1B)
Activin receptor type-1B [40] = target: T2, Activin receptor type-1B; assay: Radioactive kinase assay (ACVR1B)
[41] = target: Tyrosine-protein kinase JAK1 (Homo sapiens, UniProt P23458); assay: NanoBRET (SGC Frankfurt) (JAK1)
[42] = target: Phosphatidylinositol 4,5-bisphosphate 3-kinase catalytic subunit alpha isoform (Homo sapiens, UniProt P42336); assay: NanoBRET (SGC Frankfurt) (PIK3CA)
[43] = target: Calcium/calmodulin-dependent protein kinase type 1B (Homo sapiens, UniProt Q6P2M8); assay: NanoBRET (SGC Frankfurt) (PNCK)
[44] = target: Epithelial discoidin domain-containing receptor 1 (Homo sapiens, UniProt Q08345); assay: NanoBRET (SGC Frankfurt) (DDR1)
[45] = target: 5-hydroxytryptamine receptor 1D (Homo sapiens) (UniProt P28221); conditions: Compound concentration 10.0 uM
[46] = target: 5-hydroxytryptamine receptor 1E (Homo sapiens) (UniProt P28566); conditions: Compound concentration 10.0 uM
[47] = target: D(3) dopamine receptor (Homo sapiens) (UniProt P35462); conditions: Compound concentration 10.0 uM
[48] = target: T4, GABA-A receptor; anion channel (Rattus norvegicus); conditions: Compound concentration 10.0 uM; remark: listed apart in the source
[49] = target: Histamine H2 receptor (Homo sapiens) (UniProt P25021); conditions: Compound concentration 10.0 uM
[50] = target: Histamine H4 receptor (Homo sapiens) (UniProt Q9H3N8); conditions: Compound concentration 10.0 uM

T3 sequence (Q01959 whole entry): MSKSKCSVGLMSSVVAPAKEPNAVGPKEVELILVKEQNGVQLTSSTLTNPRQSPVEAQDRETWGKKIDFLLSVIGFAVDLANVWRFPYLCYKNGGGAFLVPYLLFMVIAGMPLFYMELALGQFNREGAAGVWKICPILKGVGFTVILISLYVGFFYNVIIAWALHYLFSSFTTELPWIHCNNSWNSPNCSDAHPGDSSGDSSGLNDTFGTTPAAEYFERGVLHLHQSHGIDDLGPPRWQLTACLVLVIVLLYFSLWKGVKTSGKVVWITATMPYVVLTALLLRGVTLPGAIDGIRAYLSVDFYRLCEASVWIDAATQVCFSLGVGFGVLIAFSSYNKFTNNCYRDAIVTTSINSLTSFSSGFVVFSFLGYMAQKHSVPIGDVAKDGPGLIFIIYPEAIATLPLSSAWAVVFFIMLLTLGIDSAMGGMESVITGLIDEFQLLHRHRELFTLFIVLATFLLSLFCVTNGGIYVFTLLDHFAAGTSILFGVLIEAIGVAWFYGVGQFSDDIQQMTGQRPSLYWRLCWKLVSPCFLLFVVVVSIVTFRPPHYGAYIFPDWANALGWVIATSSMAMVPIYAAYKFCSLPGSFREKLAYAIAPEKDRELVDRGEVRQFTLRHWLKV
T1 sequence (P41595 whole entry): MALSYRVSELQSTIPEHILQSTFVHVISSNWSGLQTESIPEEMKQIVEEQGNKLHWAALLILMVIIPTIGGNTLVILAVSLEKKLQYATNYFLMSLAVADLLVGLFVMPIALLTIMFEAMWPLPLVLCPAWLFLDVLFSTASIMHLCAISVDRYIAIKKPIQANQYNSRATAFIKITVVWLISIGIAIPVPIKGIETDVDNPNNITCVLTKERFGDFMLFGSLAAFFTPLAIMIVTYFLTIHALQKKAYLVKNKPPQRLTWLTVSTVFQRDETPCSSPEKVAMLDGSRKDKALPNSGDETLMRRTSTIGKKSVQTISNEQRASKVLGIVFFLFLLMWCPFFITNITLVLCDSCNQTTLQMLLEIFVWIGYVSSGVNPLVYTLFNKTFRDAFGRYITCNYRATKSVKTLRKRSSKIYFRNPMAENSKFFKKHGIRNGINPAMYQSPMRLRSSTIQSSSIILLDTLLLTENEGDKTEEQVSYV
5-hydroxytryptamine receptor 7 (Homo sapiens), sequence (P34969 whole entry): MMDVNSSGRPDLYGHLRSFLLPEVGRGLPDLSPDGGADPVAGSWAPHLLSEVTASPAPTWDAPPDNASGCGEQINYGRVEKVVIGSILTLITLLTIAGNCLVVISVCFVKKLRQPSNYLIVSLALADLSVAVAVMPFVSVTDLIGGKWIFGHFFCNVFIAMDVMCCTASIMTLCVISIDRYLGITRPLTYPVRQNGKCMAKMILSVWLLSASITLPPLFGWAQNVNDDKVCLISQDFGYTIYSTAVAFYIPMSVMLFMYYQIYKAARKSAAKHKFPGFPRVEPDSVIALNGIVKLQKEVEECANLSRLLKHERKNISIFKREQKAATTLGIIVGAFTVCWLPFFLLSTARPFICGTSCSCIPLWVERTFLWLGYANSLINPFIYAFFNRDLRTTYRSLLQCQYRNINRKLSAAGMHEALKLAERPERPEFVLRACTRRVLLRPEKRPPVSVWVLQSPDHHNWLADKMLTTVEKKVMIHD
Sodium-dependent serotonin transporter (Homo sapiens), sequence (P31645 whole entry, looked up): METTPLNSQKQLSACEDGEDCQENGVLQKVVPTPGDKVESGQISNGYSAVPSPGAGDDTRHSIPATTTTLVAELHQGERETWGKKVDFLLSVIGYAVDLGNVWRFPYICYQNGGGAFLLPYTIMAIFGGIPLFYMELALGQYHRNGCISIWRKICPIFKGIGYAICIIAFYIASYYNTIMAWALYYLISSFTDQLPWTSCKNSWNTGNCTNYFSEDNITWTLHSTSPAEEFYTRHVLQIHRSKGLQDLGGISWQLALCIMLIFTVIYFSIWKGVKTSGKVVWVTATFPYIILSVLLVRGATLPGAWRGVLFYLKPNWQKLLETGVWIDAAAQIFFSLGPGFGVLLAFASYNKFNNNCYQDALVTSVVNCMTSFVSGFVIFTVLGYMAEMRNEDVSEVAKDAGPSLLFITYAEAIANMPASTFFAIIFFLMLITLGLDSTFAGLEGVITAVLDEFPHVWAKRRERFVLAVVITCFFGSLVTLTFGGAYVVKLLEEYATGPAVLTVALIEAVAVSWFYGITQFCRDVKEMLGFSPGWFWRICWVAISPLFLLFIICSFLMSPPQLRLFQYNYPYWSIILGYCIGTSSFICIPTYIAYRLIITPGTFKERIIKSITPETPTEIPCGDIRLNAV
5-hydroxytryptamine receptor 2A (Homo sapiens), sequence (P28223 whole entry): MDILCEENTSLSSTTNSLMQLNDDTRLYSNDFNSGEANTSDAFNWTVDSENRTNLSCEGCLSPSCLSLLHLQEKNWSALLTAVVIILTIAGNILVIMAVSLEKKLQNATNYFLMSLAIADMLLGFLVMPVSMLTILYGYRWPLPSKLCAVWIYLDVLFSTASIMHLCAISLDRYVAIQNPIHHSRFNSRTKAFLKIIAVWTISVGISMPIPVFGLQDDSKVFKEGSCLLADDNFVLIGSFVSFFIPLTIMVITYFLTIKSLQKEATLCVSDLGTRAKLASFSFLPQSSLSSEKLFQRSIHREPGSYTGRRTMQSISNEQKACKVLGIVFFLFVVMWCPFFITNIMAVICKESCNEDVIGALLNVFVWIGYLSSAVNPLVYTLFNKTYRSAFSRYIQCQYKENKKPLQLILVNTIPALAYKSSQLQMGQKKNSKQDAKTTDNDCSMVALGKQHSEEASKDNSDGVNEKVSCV
5-hydroxytryptamine receptor 3A (Homo sapiens), sequence (P46098 whole entry): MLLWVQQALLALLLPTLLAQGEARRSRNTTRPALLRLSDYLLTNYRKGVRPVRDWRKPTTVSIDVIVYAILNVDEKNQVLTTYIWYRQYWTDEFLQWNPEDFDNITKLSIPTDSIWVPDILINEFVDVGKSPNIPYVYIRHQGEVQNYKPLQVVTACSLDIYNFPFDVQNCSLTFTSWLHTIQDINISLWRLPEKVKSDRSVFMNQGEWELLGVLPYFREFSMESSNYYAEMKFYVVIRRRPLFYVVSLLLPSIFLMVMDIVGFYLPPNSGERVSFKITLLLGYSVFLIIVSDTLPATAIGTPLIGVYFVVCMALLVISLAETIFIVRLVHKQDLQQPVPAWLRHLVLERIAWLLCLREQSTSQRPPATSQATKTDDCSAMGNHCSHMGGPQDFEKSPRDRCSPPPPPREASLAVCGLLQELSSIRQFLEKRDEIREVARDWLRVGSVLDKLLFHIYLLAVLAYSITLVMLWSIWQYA
Histamine H1 receptor (Homo sapiens), sequence (P35367 whole entry): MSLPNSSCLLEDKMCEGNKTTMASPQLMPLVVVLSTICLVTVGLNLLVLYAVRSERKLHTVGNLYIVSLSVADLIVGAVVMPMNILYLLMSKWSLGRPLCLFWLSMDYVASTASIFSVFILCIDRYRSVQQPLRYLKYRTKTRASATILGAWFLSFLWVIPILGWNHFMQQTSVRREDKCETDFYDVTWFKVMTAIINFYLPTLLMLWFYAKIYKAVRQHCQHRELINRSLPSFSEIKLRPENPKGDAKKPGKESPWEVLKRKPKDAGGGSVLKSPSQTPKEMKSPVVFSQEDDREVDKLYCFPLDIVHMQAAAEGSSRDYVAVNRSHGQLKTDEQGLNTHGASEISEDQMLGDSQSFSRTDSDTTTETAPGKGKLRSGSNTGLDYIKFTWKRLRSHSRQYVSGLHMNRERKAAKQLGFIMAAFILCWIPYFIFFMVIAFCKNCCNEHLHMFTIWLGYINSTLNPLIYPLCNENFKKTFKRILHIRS
Muscarinic acetylcholine receptor M3 (Homo sapiens), sequence (P20309 whole entry, looked up): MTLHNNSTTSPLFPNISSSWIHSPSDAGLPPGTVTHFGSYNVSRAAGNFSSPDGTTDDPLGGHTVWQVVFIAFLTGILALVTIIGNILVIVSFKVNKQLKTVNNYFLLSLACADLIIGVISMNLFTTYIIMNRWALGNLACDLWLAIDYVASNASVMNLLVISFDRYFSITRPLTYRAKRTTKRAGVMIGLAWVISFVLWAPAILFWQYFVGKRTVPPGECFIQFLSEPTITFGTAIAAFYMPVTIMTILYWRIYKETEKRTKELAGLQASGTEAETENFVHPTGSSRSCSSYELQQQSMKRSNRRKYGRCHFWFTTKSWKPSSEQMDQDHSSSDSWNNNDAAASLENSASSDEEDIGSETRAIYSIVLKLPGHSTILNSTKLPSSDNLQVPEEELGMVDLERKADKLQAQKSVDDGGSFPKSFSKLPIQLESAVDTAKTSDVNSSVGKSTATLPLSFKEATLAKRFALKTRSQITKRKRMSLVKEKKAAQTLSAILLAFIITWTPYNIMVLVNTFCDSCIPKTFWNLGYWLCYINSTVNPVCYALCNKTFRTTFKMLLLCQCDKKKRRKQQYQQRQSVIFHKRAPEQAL
Muscarinic acetylcholine receptor M1 (Homo sapiens), sequence (P11229 whole entry): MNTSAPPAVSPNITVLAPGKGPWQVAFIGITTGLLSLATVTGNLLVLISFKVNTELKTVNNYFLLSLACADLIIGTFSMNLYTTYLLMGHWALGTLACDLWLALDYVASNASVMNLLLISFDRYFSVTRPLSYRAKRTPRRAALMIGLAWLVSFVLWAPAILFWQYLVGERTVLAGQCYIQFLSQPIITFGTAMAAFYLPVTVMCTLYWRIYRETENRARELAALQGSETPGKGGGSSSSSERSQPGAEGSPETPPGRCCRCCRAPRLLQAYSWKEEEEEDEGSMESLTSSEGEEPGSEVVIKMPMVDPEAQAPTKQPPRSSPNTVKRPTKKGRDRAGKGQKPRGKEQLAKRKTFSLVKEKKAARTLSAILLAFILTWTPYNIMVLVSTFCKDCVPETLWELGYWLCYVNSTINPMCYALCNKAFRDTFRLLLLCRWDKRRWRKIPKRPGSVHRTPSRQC
Sigma intracellular receptor 2 (Homo sapiens), sequence (Q5BJF2 whole entry): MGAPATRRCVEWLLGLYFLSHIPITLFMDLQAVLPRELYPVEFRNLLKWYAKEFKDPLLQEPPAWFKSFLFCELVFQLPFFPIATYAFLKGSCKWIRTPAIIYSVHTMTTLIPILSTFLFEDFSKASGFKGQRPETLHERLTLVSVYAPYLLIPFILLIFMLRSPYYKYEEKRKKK

What does the source list for `Cc1cnc(-c2cc(Cl)ccc2F)cc1-n1c(=O)n(CC(N)=O)c2ccccc21` [Al11]?
Ki ([1]; read-out: Ki): 1590 nM; Ki ([1]; read-out: pKi (converted)): 1570 nM; Ki [2]: 2750 nM; IC50 (Activin receptor type-1B [3]): > 10000 nM (not active); IC50 (TGF-beta receptor type-1): > 10000 nM (not active); inhibition [4]: 12%; inhibition [5]: -7.07%; inhibition [6]: 11.2%; inhibition [7]: 72%; inhibition [8]: 10.2%; inhibition [9]: 19.9%; inhibition [10]: -0.66%; inhibition [11]: 14.1%; inhibition [12]: 12.1%; inhibition [13]: -2.08%; inhibition [14]: -1.99%; inhibition [15]: -1.38%; inhibition [16]: 6.12%; inhibition [17]: 14.3%; inhibition [18]: -4.34%; inhibition [19]: -2.43%; inhibition [20]: -8.16%; inhibition [21]: 0.25%; inhibition [22]: 5.45%; inhibition [23]: 3.1%; inhibition [24]: 17.3%; inhibition [25]: 17.9%; inhibition [26]: 25.8%; inhibition [27]: 16.7%; inhibition [28]: -1.17%; inhibition [29]: 14.4%; inhibition [30]: -5.28%; inhibition [31]: 3.09%; inhibition [32]: 1.56%; inhibition [33]: 9.94%; inhibition [34]: 50.2%; inhibition (Rattus norvegicus): 27.1%; inhibition [35]: 2.71%; inhibition [36]: 41.6%

For `Cc1cnc(-c2cc(Cl)ccc2F)cc1-n1c(=O)n(CC(N)=O)c2cnccc21` [TP-008], which Ki ([1]; read-out: Ki) is on record?
Its Ki is 1880 nM.

And the Ki [37]?
Its Ki is 10000 nM.

And the pKi [37]?
The pKi was 5.

And the IC50 (Activin receptor type-1B [38])?
Its IC50 is 1000 nM (active).

And the IC50 (Activin receptor type-1B [39])?
The IC50 was 526 nM (active).

What about the IC50 (Activin receptor type-1B [40]) of the same compound?
Its IC50 is 126 nM (active).

And the IC50 [41]?
The IC50 was > 20000 nM (not active).

And the IC50 [42]?
Its IC50 is > 20000 nM (not active).

What about the IC50 [43] of the same compound?
The IC50 was > 20000 nM (not active).

And the IC50 [44]?
Its IC50 is > 20000 nM (not active).

What about the inhibition [4] of the same compound?
The inhibition was 22.9%.

What about the inhibition [5] of the same compound?
Its inhibition is 19.5%.

What about the inhibition [45] of the same compound?
Its inhibition is 5.53%.

What about the inhibition [46] of the same compound?
The inhibition was -5.81%.

And the inhibition [6]?
Its inhibition is -0.869%.

What about the inhibition [7] of the same compound?
Its inhibition is 70.5%.

What about the inhibition [8] of the same compound?
The inhibition was 15.5%.

And the inhibition [9]?
Its inhibition is -6.36%.

And the inhibition [10]?
The inhibition was 16.8%.

What about the inhibition [11] of the same compound?
Its inhibition is -4.28%.

What about the inhibition [12] of the same compound?
The inhibition was 3.98%.

What about the inhibition [13] of the same compound?
Its inhibition is 12.9%.

What about the inhibition [14] of the same compound?
Its inhibition is -5.48%.

What about the inhibition [47] of the same compound?
The inhibition was 2.27%.

And the inhibition [15]?
Its inhibition is 5.41%.

And the inhibition [17]?
The inhibition was 3.84%.

And the inhibition [18]?
The inhibition was 87.6%.

And the inhibition [48]?
Its inhibition is 27.3%.

And the inhibition [19]?
Its inhibition is 0.849%.

And the inhibition [49]?
The inhibition was 6.53%.

And the inhibition [20]?
Its inhibition is 30.5%.

And the inhibition [50]?
The inhibition was 26.6%.

What about the inhibition [21] of the same compound?
The inhibition was -2.17%.

And the inhibition [22]?
Its inhibition is 3.76%.

What about the inhibition [23] of the same compound?
Its inhibition is -0.767%.

What about the inhibition [24] of the same compound?
Its inhibition is 18.1%.

And the inhibition [25]?
Its inhibition is -5.16%.

What about the inhibition [27] of the same compound?
The inhibition was 13.9%.

And the inhibition [28]?
Its inhibition is -3.81%.

And the inhibition [29]?
The inhibition was 2.23%.

What about the inhibition [30] of the same compound?
The inhibition was -7.48%.

And the inhibition [31]?
Its inhibition is -3.08%.

And the inhibition [32]?
Its inhibition is -5.69%.

What about the inhibition [33] of the same compound?
The inhibition was 3.94%.

And the inhibition [34]?
The inhibition was 31.8%.

And the inhibition (Rattus norvegicus)?
Its inhibition is -8.98%.

And the inhibition [36]?
The inhibition was -2.75%.
